Measurements: patent US11638707B2, “Substituted amino triazoles useful as chitinase inhibitors” (Molecure S.A., priority 2019, dated 2023)
Where a name gives a salt, the structure may show the parent alone.

Experiments:
[1] = biological target: recombinant human CHIT1 (Homo sapiens (Human), UniProt Q13231); experiment: Human CHIT1 activity assay; assay type: biochemical; details: recombinant human CHIT1, citrate buffer pH 5.2, 37° C., 60 minutes; read-out: hCHIT1, IC50
Experimental: (§1) The assay was run in the 96-well plate format, each reaction in the total volume of 100 μL. 4-methylumbelliferyl β-D-N,N′,N″-triacetylchitotriose was used as a substrate for the enzyme. Upon hydrolysis by CHIT1, the substrate releases 4-methylumbelliferyl (4MU) that, when ionized in basic pH, emits fluorescence at 460 nm. Briefly, 40 μL of a substrate was added to each well, followed by 10 μL of compound dilution and 50 μL of CHIT1 recombinant enzyme solution. The reaction was carried out in citrate buffer, pH 5.2, in the dark, at 37° C. for 60 minutes with shaking. […] The IC50 values were calculated using GraphPad Prism.

[2] = biological target: hERG channel (Homo sapiens (Human), UniProt Q12809); experiment: Human ERG channel binding assay (fluorescence polarization); details: Table 1; tracer displacement, 4 h at room temperature
Experimental: Human ERG Channel Binding Assay
Fluorescence polarization assay based on the principle of fluorescence polarization where a red-shifted fluorescent tracer is displaced from the hERG channel by compounds that bind to the channel was used to establish the binding of the compounds to hERG channel. […] Briefly, the compounds in serial dilutions were incubated with a membrane fraction containing hERG channel protein and a high-affinity red fluorescent hERG channel ligand in black 384-well plate. […] The IC50 values were calculated using GraphPad Prism.

[3] = biological target: recombinant human AMCase (Homo sapiens (Human), UniProt Q9BZP6); experiment: Human AMCase activity assay; assay type: biochemical; details: citrate buffer pH 5.2, 37° C., 60 minutes, read-out: hAMCase, IC50
Experimental: as §1, with “4-Methylumbelliferyl B-D-N,N′-diacetylchitobioside hydrate” for “4-methylumbelliferyl β-D-N,N′,N″-triacetylchitotriose”, “AMCase,” for “CHIT1,”, “hAMCase” for “CHIT1”

Chain of recombinant human CHIT1 (Q13231 22-466): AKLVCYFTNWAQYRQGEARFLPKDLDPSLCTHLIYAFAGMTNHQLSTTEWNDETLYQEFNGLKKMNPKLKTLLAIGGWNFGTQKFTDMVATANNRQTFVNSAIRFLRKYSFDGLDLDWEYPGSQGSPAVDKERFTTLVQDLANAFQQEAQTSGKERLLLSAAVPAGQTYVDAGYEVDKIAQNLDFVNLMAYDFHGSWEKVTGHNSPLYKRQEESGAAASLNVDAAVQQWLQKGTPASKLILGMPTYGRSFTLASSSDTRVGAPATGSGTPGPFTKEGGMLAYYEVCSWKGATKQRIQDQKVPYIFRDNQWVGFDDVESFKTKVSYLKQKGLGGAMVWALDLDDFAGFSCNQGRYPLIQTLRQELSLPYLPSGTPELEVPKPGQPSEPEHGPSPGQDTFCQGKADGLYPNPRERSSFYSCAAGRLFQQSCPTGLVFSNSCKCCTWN
Chain of hERG channel (Q12809 whole entry): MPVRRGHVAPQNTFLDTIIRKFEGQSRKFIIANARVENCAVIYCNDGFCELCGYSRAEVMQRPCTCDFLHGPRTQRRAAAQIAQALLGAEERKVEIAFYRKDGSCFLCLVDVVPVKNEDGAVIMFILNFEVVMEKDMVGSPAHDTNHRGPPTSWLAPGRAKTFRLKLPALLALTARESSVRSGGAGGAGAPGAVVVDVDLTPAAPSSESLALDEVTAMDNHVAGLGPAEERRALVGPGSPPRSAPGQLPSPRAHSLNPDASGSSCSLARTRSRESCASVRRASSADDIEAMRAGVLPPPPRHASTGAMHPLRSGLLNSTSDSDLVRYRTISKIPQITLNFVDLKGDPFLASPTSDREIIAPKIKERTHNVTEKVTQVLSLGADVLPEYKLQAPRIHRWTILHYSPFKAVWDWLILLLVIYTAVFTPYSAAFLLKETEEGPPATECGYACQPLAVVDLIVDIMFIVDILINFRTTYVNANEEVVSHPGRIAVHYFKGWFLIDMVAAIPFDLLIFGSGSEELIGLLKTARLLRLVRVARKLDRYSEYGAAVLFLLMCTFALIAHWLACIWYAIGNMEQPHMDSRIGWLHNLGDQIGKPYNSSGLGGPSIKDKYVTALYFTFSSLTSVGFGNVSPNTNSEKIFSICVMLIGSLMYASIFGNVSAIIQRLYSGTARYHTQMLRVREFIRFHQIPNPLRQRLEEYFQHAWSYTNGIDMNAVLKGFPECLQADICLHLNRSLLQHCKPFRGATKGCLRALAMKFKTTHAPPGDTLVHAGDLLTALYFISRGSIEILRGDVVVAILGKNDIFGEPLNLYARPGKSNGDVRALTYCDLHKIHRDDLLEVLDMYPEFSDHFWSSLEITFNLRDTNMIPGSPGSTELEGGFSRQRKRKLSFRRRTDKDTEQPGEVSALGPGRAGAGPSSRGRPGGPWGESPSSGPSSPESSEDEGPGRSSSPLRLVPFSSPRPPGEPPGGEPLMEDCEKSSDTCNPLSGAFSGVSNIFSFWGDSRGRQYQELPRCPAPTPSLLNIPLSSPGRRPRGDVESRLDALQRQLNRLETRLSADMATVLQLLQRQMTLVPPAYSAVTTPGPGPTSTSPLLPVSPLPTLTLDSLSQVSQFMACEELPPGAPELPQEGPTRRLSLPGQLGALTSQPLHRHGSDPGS
Chain of recombinant human AMCase (Q9BZP6 22-476): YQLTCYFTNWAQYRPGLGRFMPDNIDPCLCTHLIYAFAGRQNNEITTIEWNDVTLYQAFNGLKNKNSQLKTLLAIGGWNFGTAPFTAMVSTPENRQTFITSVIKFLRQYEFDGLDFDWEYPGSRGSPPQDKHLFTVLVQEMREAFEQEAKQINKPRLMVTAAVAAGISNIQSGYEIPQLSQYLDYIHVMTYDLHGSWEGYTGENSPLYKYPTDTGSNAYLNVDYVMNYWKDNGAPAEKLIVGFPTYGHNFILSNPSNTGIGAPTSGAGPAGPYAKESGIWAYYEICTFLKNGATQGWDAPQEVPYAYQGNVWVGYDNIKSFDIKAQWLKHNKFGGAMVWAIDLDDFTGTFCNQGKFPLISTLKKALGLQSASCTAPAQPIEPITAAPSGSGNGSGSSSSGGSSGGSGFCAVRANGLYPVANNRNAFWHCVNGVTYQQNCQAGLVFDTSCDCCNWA

SMILES | IC50 [1] | IC50 [3] | IC50 [2]
Cc1cc([C@H]2CN(C3CCN(c4nnc(N)[nH]4)CC3)[C@@H](Cc3ccc(Cl)cc3)CO2)nn1C [Example 11, 5-(4-((2R,5S)-5-(4-chlorobenzyl)-2-(1,5-dimethyl-1H-pyrazol-3-yl)morpholino)-piperidin-1-yl)-4H-1,2,4-triazol-3-amine 2,2,2-trifluoroacetate] | < 0.1 µM | < 0.1 µM | > 100 µM
Cc1nc([C@H]2CN(C3CCN(c4nnc(N)[nH]4)CC3)[C@@H](Cc3ccc(Cl)cc3)CO2)oc1C [Example 50, 5-(4-((2R,5S)-5-(4-chlorobenzyl)-2-(4,5-dimethyloxazol-2-yl)morpholino)piperidin-1-yl)-4H-1,2,4-triazol-3-amine 2,2,2-trifluoroacetate] | < 0.1 µM | < 0.1 µM | 1 to 10 µM
Nc1nnc(N2CCC(N3C[C@H]([C@H](O)C(F)(F)F)OC[C@@H]3Cc3ccc(Cl)cc3)CC2)[nH]1 [Example 16, (S)-1-((2R,5S)-4-(1-(5-amino-4H-1,2,4-triazol-3-yl)piperidin-4-yl)-5-(4-chloro-benzyl)morpholin-2-yl)-2,2,2-trifluoroethanol 2,2,2-trifluoroacetate] | < 0.1 µM | < 0.1 µM | > 100 µM
Cn1ccc([C@H]2CN(C3CCN(c4nnc(N)[nH]4)CC3)[C@@H](Cc3ccc(Cl)cc3)CO2)n1 [Example 9, 5-(4-((2R,5S)-5-(4-chlorobenzyl)-2-(1-methyl-1H-pyrazol-3-yl)morpholino)-piperidin-1-yl)-4H-1,2,4-triazol-3-amine 2,2,2-trifluoroacetate] | < 0.1 µM | < 0.1 µM | > 100 µM
CC(C)NC(=O)[C@H]1CN(C2CCN(c3nnc(N)[nH]3)CC2)[C@@H](Cc2ccc(Cl)cc2)CO1 [Example 65, (2R,5S)-4-(1-(5-amino-4H-1,2,4-triazol-3-yl)piperidin-4-yl)-5-(4-chlorobenzyl)-N-isopropylmorpholine-2-carboxamide 2,2,2-trifluoroacetate] | 0.1 to 1 µM | < 0.1 µM | > 100 µM
CN(C)C(=O)OC[C@H]1CN(C2CCN(c3nnc(N)[nH]3)CC2)[C@@H](Cc2ccc(Cl)cc2)CO1 [Example 48, ((2R,5S)-4-(1-(5-amino-4H-1,2,4-triazol-3-yl)piperidin-4-yl)-5-(4-chlorobenzyl)morpholin-2-yl)methyl dimethylcarbamate 2,2,2-trifluoroacetate] | < 0.1 µM | < 0.1 µM | 25 to 100 µM
Nc1nnc(N2CCC(N3C[C@H](c4ccn[nH]4)OC[C@@H]3Cc3ccc(Cl)cc3)CC2)[nH]1 [Example 12, 5-(4-((2R,5S)-5-(4-chlorobenzyl)-2-(1H-pyrazol-5-yl)morpholino)piperidin-1-yl)-4H-1,2,4-triazol-3-amine 2,2,2-trifluoroacetate] | < 0.1 µM | < 0.1 µM | > 100 µM
Nc1nnc(N2CCC(N3C[C@H](C(=O)N4CCC(F)(F)C4)OC[C@@H]3Cc3ccc(Cl)cc3)CC2)[nH]1 [Example 54, ((2R,5S)-4-(1-(5-amino-4H-1,2,4-triazol-3-yl)piperidin-4-yl)-5-(4-chlorobenzyl)-morpholin-2-yl)(3,3-difluoropyrrolidin-1-yl)methanone 2,2,2-trifluoroacetate] | 0.1 to 1 µM | < 0.1 µM | > 100 µM
Nc1nnc(N2CCC(N3C[C@H](C(=O)NCC(F)F)OC[C@@H]3Cc3ccc(Cl)cc3)CC2)[nH]1 [Example 25, (2R,5S)-4-(1-(5-amino-4H-1,2,4-triazol-3-yl)piperidin-4-yl)-5-(4-chlorobenzyl)-N-(2,2-difluoroethyl)morpholine-2-carboxamide 2,2,2-trifluoroacetate] | < 0.1 µM | < 0.1 µM | > 100 µM
CC(F)[C@H]1CN(C2CCN(c3nnc(N)[nH]3)CC2)[C@@H](Cc2ccc(Cl)cc2)CO1 (relative stereo) [Example 20, 5-(4-((2R,5S)-5-(4-chlorobenzyl)-2-(1-fluoroethyl)morpholino)piperidin-1-yl)-4H-1,2,4-triazol-3-amine 2,2,2-trifluoroacetate] | < 0.1 µM | < 0.1 µM | > 100 µM
CC(C)(F)[C@H]1CN(C2CCN(c3nnc(N)[nH]3)CC2)[C@@H](Cc2ccc(Cl)cc2)CO1 [Example 1, 5-(4-((2R,5S)-5-(4-chlorobenzyl)-2-(2-fluoropropan-2-yl)morpholino)piperidin-1-yl)-4H-1,2,4-triazol-3-amine 2,2,2-trifluoroacetate] | < 0.1 µM | < 0.1 µM | 25 to 100 µM
Cn1nccc1[C@H]1CN(C2CCN(c3nnc(N)[nH]3)CC2)[C@@H](Cc2ccc(Cl)cc2)CO1 [Example 10, 5-(4-((2R,5S)-5-(4-chlorobenzyl)-2-(1-methyl-1H-pyrazol-5-yl)morpholino)piperidin-1-yl)-4H-1,2,4-triazol-3-amine 2,2,2-trifluoroacetate] | < 0.1 µM | < 0.1 µM | > 100 µM
Nc1nnc(N2CCC(N3C[C@H](Cc4nn[nH]n4)OC[C@@H]3Cc3ccc(Cl)cc3)CC2)[nH]1 [Example 4, 5-(4-((2S,5S)-2-((2H-tetrazol-5-yl)methyl)-5-(4-chlorobenzyl)morpholino)-piperidin-1-yl)-4H-1,2,4-triazol-3-amine 2,2,2-trifluoroacetate] | < 0.1 µM | < 0.1 µM | > 100 µM

Second part, led by results:

IC50 [1] | IC50 [3] | SMILES | IC50 [2]
< 0.1 µM | < 0.1 µM | Nc1nnc(N2CCC(N3C[C@H](Cn4cncn4)OC[C@@H]3Cc3ccc(Cl)cc3)CC2)[nH]1 [Example 27, 5-(4-((2R,5S)-2-((1H-1,2,4-triazol-1-yl)methyl)-5-(4-chlorobenzyl)morpholino)piperidin-1-yl)-4H-1,2,4-triazol-3-amine 2,2,2-trifluoroacetate] | > 100 µM
< 0.1 µM | < 0.1 µM | C[S+]([O-])C[C@H]1CN(C2CCN(c3nnc(N)[nH]3)CC2)[C@@H](Cc2ccc(Cl)cc2)CO1 (stereo partly drawn) [Example 32, 5-(4-((2R,5S)-5-(4-chlorobenzyl)-2-((methylsulfinyl)methyl)morpholino)piperidin-1-yl)-4H-1,2,4-triazol-3-amine dihydrochloride] | > 100 µM
< 0.1 µM | < 0.1 µM | Nc1nnc(N2CCC(N3C[C@H](CN4CCCC4)OC[C@@H]3Cc3ccc(Cl)cc3)CC2)[nH]1 [Example 28, 5-(4-((2S,5S)-5-(4-chlorobenzyl)-2-(pyrrolidin-1-ylmethyl)morpholino)piperidin-1-yl)-4H-1,2,4-triazol-3-amine 2,2,2-trifluoroacetate] | > 100 µM
< 0.1 µM | < 0.1 µM | Nc1nnc(N2CCC(N3C[C@H](CC(F)(F)F)OC[C@@H]3Cc3ccc(Cl)cc3)CC2)[nH]1 [Example 14, 5-(4-((2S,5S)-5-(4-chlorobenzyl)-2-(2,2,2-trifluoroethyl)morpholino)piperidin-1-yl)-4H-1,2,4-triazol-3-amine 2,2,2-trifluoroacetate] | > 100 µM
< 0.1 µM | < 0.1 µM | CS(=O)(=O)C[C@H]1CN(C2CCN(c3nnc(N)[nH]3)CC2)[C@@H](Cc2ccc(Cl)cc2)CO1 [Example 33, 5-(4-((2R,5S)-5-(4-chlorobenzyl)-2-((methylsulfonyl)methyl)morpholino)piperidin-1-yl)-4H-1,2,4-triazol-3-amine dihydrochloride] | > 100 µM
< 0.1 µM | < 0.1 µM | Nc1nnc(N2CCC(N3C[C@H](Cn4cccn4)OC[C@@H]3Cc3ccc(Cl)cc3)CC2)[nH]1 [Example 13, 5-(4-((2R,5S)-2-((1H-pyrazol-1-yl)methyl)-5-(4-chlorobenzyl)morpholino)-piperidin-1-yl)-4H-1,2,4-triazol-3-amine 2,2,2-trifluoroacetate] | > 100 µM
< 0.1 µM | < 0.1 µM | Cn1nnc(C[C@H]2CN(C3CCN(c4nnc(N)[nH]4)CC3)[C@@H](Cc3ccc(Cl)cc3)CO2)n1 [Example 5, 5-(4-((2S,5S)-5-(4-chlorobenzyl)-2-((2-methyl-2H-tetrazol-5-yl)methyl)-morpholino)piperidin-1-yl)-4H-1,2,4-triazol-3-amine 2,2,2-trifluoroacetate] | 25 to 100 µM
< 0.1 µM | < 0.1 µM | CSC[C@H]1CN(C2CCN(c3nnc(N)[nH]3)CC2)[C@@H](Cc2ccc(Cl)cc2)CO1 [Example 41, 5-(4-((2R,5S)-5-(4-chlorobenzyl)-2-((methylthio)methyl)morpholino)piperidin-1-yl)-4H-1,2,4-triazol-3-amine dihydrochloride] | 25 to 100 µM
